Experimental data published in ChEMBL document CHEMBL1135641, “Antitumor agents. 217. Curcumin analogues as novel androgen receptor antagonists with potential as anti-prostate cancer agents” (J Med Chem, 2002).

Key:
[1] = biological target: T1, Androgen receptor (Homo sapiens) (UniProt P10275); test: Reduction in DHT-induced Androgen receptor activity
T1 sequence (whole entry): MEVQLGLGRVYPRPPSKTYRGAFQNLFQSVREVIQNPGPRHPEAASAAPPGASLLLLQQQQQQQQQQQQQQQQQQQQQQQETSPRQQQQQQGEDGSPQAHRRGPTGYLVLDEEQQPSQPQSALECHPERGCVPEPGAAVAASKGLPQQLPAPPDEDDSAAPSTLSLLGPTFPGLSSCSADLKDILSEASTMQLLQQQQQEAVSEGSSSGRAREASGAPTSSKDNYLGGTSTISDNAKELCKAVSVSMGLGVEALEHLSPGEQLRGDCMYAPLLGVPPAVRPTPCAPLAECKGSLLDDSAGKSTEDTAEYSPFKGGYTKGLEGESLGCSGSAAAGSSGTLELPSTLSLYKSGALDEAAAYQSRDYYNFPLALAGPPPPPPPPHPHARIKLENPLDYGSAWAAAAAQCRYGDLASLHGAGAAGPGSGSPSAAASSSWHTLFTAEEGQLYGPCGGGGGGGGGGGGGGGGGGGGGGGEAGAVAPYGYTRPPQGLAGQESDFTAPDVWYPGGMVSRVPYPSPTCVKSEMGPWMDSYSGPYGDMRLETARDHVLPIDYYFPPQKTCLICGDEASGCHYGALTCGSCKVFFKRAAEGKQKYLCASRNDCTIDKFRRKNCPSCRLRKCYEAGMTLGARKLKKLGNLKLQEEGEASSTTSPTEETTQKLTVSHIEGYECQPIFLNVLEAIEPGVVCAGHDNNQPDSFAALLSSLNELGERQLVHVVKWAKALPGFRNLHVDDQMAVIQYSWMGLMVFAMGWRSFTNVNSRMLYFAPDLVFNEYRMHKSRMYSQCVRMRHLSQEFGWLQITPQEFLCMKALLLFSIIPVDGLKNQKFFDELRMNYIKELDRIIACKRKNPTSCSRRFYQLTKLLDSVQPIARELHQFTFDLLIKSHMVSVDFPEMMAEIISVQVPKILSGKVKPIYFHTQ

[2] = biological target: T1, Androgen receptor (Homo sapiens); test: Antagonistic activity against Androgen receptor in PC-3 human prostate cancer cells; assay type: functional, cell-based
[3] = biological target: T1, Androgen receptor (Homo sapiens); test: Antagonistic activity against Androgen receptor in DU-145 human prostate cancer cells; assay type: functional, cell-based

| Reduction [1] | Reduction [2] | Reduction [3] | Structure (SMILES) |
| --- | --- | --- | --- |
| 18% | – | – | COc1ccc(CCC(=O)CC(O)CCc2ccc(OC)c(OC)c2)cc1OC (stereo unspecified) |
| – | 70% | 45% | COc1ccc(/C=C/C(=O)/C=C(O)/C=C/c2ccc(OC)c(OC)c2)cc1OC |
| – | – | 54% | COC(=O)COc1ccc(/C=C/C(=O)/C=C(O)/C=C/c2ccc(OCC(=O)OC)c(OC)c2)cc1OC |
| – | – | 53.8% | CCOC(O)=C(C(=O)/C=C/c1ccc(O)c(OC)c1)C(=O)/C=C/c1ccc(O)c(OC)c1 |
| 18% | – | – | COc1ccc(CCC(=O)CC(=O)CCc2ccc(OC)c(OC)c2)cc1OC |
